Results from patent US9102712B2, “Dendrimeric peptides, pharmaceutical compositions and methods of using the same” (New York University, priority 2010, dated 2015).
≈ marks a conversion by molar mass, not a printed value. Square brackets hold non-standard residues; d marks the D form. Side chains are listed from the residue outwards. Peptide text beside a SMILES is read from it. * marks the point of attachment. ξ: configuration not given here. X1 = CC(C)(C)c1cc(C(C)(C)C)c2[nH]c(C(C)(C)C)c(CC(NC(=O)[C@@H](N)CCCNC(=N)N)C(=O)*)c2c1; Trp(2,5,7-tBu3) = CC(C)(C)c1cc(C(C)(C)C)c2[nH]c(C(C)(C)C)c(C[C@H](N)C(=O)O)c2c1; ξTrp(2,5,7-tBu3) = CC(C)(C)c1cc(C(C)(C)C)c2[nH]c(C(C)(C)C)c(CC(N)C(=O)O)c2c1; βAla = NCCC(=O)O

Tests used:
MRSA = assay type: cell-based, Methicillin-resistant Staphylococcus aureus; conditions: 18 h
Method: (§1) The antibacterial activity of each dendrimer peptide was tested by following standard broth microdilution protocols recommended by the National Committee for Clinical Laboratory Standard (NCCLS 2004). Antibacterial testing was carried out on gram-negative bacteria E. coli (D31) and gram-positive bacteria S. aureus in liquid media Mueller Hinton (MH) Brooth according to literature procedures. Dendrimers were dissolved in PBS buffer (high salt, 150 mM NaCl; low salt, 75 mM NaCl), pH 7.4 to make series of stocks of 2-fold dilution. Cultures were grown overnight on Mueller Hinton (MH) agar plates, and 3 to 5 uniform colonies of each organism were transferred with an inoculating loop to test tubes containing MH broth, and incubated at 37° C. overnight, then diluted until the turbidity matched that of the 0.5 McFarland standard (approximately 1.5×10^8 cells/mL). The resulting solutions were further diluted to give approximately 2×10^4-2×10^5 CFU/mL. 100 μL of the bacterial inoculums were incubated in 96-well plates with varying volumes of stock solution and PBS buffer to bring the total volume to 200 μL. Solutions containing the same volumes of PBS buffer and MH Broth, with and without bacteria were used as controls. After these plates were incubated with shaking for 18 hrs at 37° C. to ensure the cultures had reached log phase growth, the absorbance readings were recorded at a wavelength of 600 nm using a Absorbance Microplate Reader BIO-TEK ELX800. The 18-hour absorbance data were used to calculate the percent inhibition for each test condition. All assays were carried out in triplicate. The experimental data were fitted to sigmoidal dose-response curves using GraphPad Prism (GraphPad Software Inc., San Diego, Calif., USA).

fresh sheep RBC = assay type: cell-based; conditions: red cells of sheep, 1 h
Method: Hemolytic activity of dendrimeric compounds were assessed on fresh sheep RBC (Fitzgerald, Inc., MA). Dendrimer concentrations corresponding to 50% hemolysis were used as hemolytic dose (HD50) determined from dose-response curve. The fresh sheep RBC was washed with PBS buffer (thrice) and aliquots of cell suspension were mixed in eppendorf tubes with varying volumes of stocks and buffer for a total volume of 400 μL. These tubes were incubated at 37° C. for 1 hr, and then spun down at 3,000 rpm for 5 mins. The resulting supernatant was trasferred to a 96-well plate and the absorbances at 540 nm were measured in an Absorbance Microplate Reader BIO-TEK ELX800. Zero hemolysis and 100% hemolysis controls were obtained by incubating the cells with buffer and 1% Triton X-100, respectively. Hemolytic index (HI) was defined as HI=HD50/IC50 (Table 1 and 3).

E. coli (D31) = assay: Antibacterial broth microdilution, E. coli; assay type: cell-based; conditions: for IC50 E. Coli D31 / E. Coli IC50: 50% inhibition of growth, MH broth, 18 hrs at 37° C.; for IC50 E. Coli D31: Table 3; for E. Coli IC50: Table 1
Method: as §1

B. Subtilis = assay type: cell-based; conditions: 18 h
S. aureus = assay type: cell-based; conditions: for S. Aureus IC50: 18 h
Method: as §1

Compound	IC50 MRSA (MRSA)	HD50 Hemolysis (fresh sheep RBC)	IC50 E. Coli D31 (E. coli (D31))	IC50 B. Subtilis (B. Subtilis)	S. Aureus IC50 (S. aureus)	Hemolysis HD50 (fresh sheep RBC)	E. Coli IC50 (E. coli (D31))	S. Aureus HI (hemolytic index) (S. aureus; HI=HD50/IC50, S. aureus)	E. Coli HI (hemolytic index) (E. coli (D31); HI=HD50/IC50, E. coli)
CC(C)(C)c1cc(C(C)(C)C)c2[nH]c(C(C)(C)C)c(CC(NC(=O)[C@@H](N)CCCNC(=N)N)C(=O)N[C@@H](CCCNC(=N)N)C(=O)NCCCC[C@H](NC(=O)[C@H](CCCCNC(=O)[C@H](CCCNC(=N)N)NC(=O)[C@H](Cc3c[nH]c4ccccc34)NC(=O)[C@@H](N)CCCNC(=N)N)NC(=O)[C@H](CCCNC(=N)N)NC(=O)[C@H](Cc3c[nH]c4ccccc34)NC(=O)[C@@H](N)CCCNC(=N)N)C(=O)NCCC(N)=O)c2c1 (stereo partly drawn) [Dendrimer 3D-16] (H-RWRK([Arg-Trp-Arg])K([Arg-X1])[βAla]-NH2)	5.2 µg/mL (≈ 2.59 µM)	201 µg/mL	0.4 µg/mL (≈ 0.199 µM)	0.9 µg/mL (≈ 0.448 µM)					
CC(C)(C)c1cc(C(C)(C)C)c2[nH]c(C(C)(C)C)c(C[C@H](N)C(=O)N[C@@H](CCCNC(=N)N)C(=O)NCCCC[C@H](NC(=O)[C@H](CCCNC(=N)N)NC(=O)[C@@H](N)Cc3c(C(C)(C)C)[nH]c4c(C(C)(C)C)cc(C(C)(C)C)cc34)C(=O)N[C@@H](CCCCNC(=O)[C@H](CCCNC(=N)N)NC(=O)[C@@H](N)Cc3c[nH]c4ccccc34)C(=O)NCCC(N)=O)c2c1 [Dendrimer 3D-23] (H-[Trp(2,5,7-tBu3)]RK([Arg-Trp(2,5,7-tBu3)])K([Arg-Trp])[βAla]-NH2)	0.7 µg/mL (≈ 0.41 µM)	99 µg/mL	2.4 µg/mL (≈ 1.4 µM)	2.1 µg/mL (≈ 1.23 µM)					
CC(C)(C)c1cc(C(C)(C)C)c2[nH]c(C(C)(C)C)c(CC(NC(=O)[C@@H](N)CCCNC(=N)N)C(=O)N[C@@H](CCCNC(=N)N)C(=O)NCCCC[C@H](NC(=O)[C@H](CCCNC(=N)N)NC(=O)C(Cc3c(C(C)(C)C)[nH]c4c(C(C)(C)C)cc(C(C)(C)C)cc34)NC(=O)[C@@H](N)CCCNC(=N)N)C(=O)N[C@@H](CCCCNC(=O)[C@H](CCCNC(=N)N)NC(=O)[C@H](Cc3c[nH]c4ccccc34)NC(=O)[C@@H](N)CCCNC(=N)N)C(=O)NCCC(N)=O)c2c1 (stereo partly drawn) [Dendrimer 3D-26] (H-R[ξTrp(2,5,7-tBu3)]RK([Arg-X1])K([Arg-Trp-Arg])[βAla]-NH2)	0.5 µg/mL (≈ 0.23 µM)	33 µg/mL	1.4 µg/mL (≈ 0.643 µM)	1.4 µg/mL (≈ 0.643 µM)					
N=C(N)NCCC[C@H](NC(=O)[C@@H](N)Cc1c[nH]c2ccccc12)C(=O)NCCCC[C@H](NC(=O)[C@H](CCCNC(=N)N)NC(=O)[C@@H](N)Cc1c[nH]c2ccccc12)C(=O)NCCCC[C@H](NC(=O)[C@H](CCCCNC(=O)[C@H](CCCNC(=N)N)NC(=O)[C@@H](N)Cc1c[nH]c2ccccc12)NC(=O)[C@H](CCCNC(=N)N)NC(=O)[C@@H](N)Cc1c[nH]c2ccccc12)C(=O)NCCC(N)=O [Dendrimer 4D-04, reference compound]	14.6 µg/mL (≈ 7.93 µM)	1563 µg/mL	4.5 µg/mL (≈ 2.44 µM)	4.2 µg/mL (≈ 2.28 µM)					
N=C(N)NCCC[C@H](N)C(=O)N[C@@H](Cc1c[nH]c2ccccc12)C(=O)NCCCN(CCCCN(CCCNC(=O)[C@H](Cc1c[nH]c2ccccc12)NC(=O)[C@@H](N)CCCNC(=N)N)CCCNC(=O)[C@H](Cc1c[nH]c2ccccc12)NC(=O)[C@@H](N)CCCNC(=N)N)CCCNC(=O)[C@H](Cc1c[nH]c2ccccc12)NC(=O)[C@@H](N)CCCNC(=N)N [POPAM-(WR)4, POPAM-(WR—NH2)3]					0.37 ± 0.13 µg/mL	291 µg/mL	0.57 ± 0.12 µg/mL		
NCCCC[C@H](N)C(=O)N[C@@H](Cc1c[nH]c2ccccc12)C(=O)NCCN(CCNC(=O)[C@H](Cc1c[nH]c2ccccc12)NC(=O)[C@@H](N)CCCCN)CCNC(=O)[C@H](Cc1c[nH]c2ccccc12)NC(=O)[C@@H](N)CCCCN [TAEA-(WK)3, TAEA-(WK—NH2)3]					4.12 ± 0.58 µg/mL	5423 µg/mL	6.87 ± 0.01 µg/mL	1316	789
N=C(N)NCCC[C@H](N)C(=O)N[C@@H](Cc1c[nH]c2ccccc12)C(=O)NCCN(CCNC(=O)[C@H](Cc1c[nH]c2ccccc12)NC(=O)[C@@H](N)CCCNC(=N)N)CCNC(=O)[C@H](Cc1c[nH]c2ccccc12)NC(=O)[C@@H](N)CCCNC(=N)N [TAEA-(WR)3, TAEA-(WR—NH2)3]					0.97 ± 0.02 µg/mL	3073 µg/mL	2.07 ± 0.22 µg/mL		
